Source: patent publication US20150368248A1, “2-SUBSTITUTED-6-BIARYLMETHYLAMINO-9-CYCLOPENTYL-9H-PURINE DERIVATIVES, USE THEREOF AS MEDICAMENTS, AND PHARMACEUTICAL COMPOSITIONS” (UNIVERZITA PALACKEHO V OLOMOUCI, priority 2013, published 2015)
pIC50: −log10 of the molar value. Read-outs that look alike come from different tables or passages of the source.

Tests used:
[1] = system: caspase-3/7 activity in Hep3B cell line; test: One-step cellular caspase-3/7 activity assay; type: cell-based, human; conditions: 24 hours, 0 nM = 1.00
Procedure: (§1) Measurements of proapoptotic properties of new compounds were based on quantification of enzymatic activities of caspases, concretely caspases-3/7. Activity of cellular caspase-3/7 was measured according to Carrasco et al., 2003, BioTechniques, 34(5): 1064-67. Briefly, Hep3B and PLC/PRF/5 cells were incubated in the densities of 10000 cells/well in a 96-well plate overnight. Next day, the compounds in appropriate concentrations were added and cells were incubated for the 24 hours. After incubation, 3× caspase-3/7 assay buffer (150 mM HEPES pH 7.4, 450 mM NaCl, 150 mM KCl, 30 mM MgCl2, 1.2 mM EGTA, 1.5% Nonidet P40, 0.3% CHAPS, 30% sucrose, 30 mM DTT, 3 mM PMSF) with 150 μM Ac-DEVD-AMC as a substrate (Sigma-Aldrich) was added to the wells and plates were incubated at […]. The caspase-3/7 activity was measured after 6 hours using Fluoroskan Ascent microplate reader (Labsystems) at 346 nm/442 nm (excitation/emission).

[2] = system: caspase-3/7 activity in PLC/PRF/5 cell line; test: One-step cellular caspase-3/7 activity assay; type: cell-based, human; conditions: 24 hours incubation, relative to 0 nM = 1.00
Procedure: as §1

CDK1/cyclin B = target: T1, CDK1/cyclin B (Homo sapiens, UniProt P06493); test: Kinase inhibition assay, recombinant kinase, [γ-33P]ATP; type: biochemical
T1 construct: made in house; host or cells: Sf9 insect cells (baculovirus)
T1 sequence (P06493 whole entry, species assumed): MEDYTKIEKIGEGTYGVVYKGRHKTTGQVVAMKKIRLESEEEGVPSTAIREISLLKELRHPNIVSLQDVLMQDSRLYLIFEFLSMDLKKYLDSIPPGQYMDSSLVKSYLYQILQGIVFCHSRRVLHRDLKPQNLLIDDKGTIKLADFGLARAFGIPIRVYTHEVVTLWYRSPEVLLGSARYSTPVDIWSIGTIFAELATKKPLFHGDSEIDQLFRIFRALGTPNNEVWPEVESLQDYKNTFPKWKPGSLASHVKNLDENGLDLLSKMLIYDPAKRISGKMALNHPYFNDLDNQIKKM
T1 sequence (P14635 whole entry partner, species assumed): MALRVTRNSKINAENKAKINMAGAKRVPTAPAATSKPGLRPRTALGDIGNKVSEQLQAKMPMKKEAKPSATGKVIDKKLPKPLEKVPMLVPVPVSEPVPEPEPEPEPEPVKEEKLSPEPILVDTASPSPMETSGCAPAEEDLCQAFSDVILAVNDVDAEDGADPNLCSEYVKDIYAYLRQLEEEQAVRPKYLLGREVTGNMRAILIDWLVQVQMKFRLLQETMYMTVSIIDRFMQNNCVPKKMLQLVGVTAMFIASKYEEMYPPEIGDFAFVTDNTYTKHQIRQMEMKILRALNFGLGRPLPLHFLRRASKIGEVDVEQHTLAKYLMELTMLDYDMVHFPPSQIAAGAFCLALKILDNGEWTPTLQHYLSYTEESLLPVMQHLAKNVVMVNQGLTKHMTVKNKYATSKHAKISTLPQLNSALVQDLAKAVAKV
Procedure: CDK2/Cyclin E kinase was produced in Sf9 insect cells via baculoviral infection and purified on a NiNTA column (Qiagen). CDK5/p35, CDK7Cyclin H/MAT1 and CDK9/Cyclin T1 was purchased from ProQinase GmbH. […] The reactions were stopped by adding 5 μL of 3% aq H3PO4. Aliquots were spotted onto P-81 phosphocellulose (Whatman), washed 3× with 0.5% aq H3PO4 and finally air-dried.
CDK1/cyclin B and CDK2/cyclin E kinases were produced in Sf9 insect cells via baculoviral infection, while CDK5/p35, CDK7/cyclin H/MAT1, and CDK9/cyclin T1 were purchased from ProQinase (Freiburg, Germany) and assayed as described previously (35). The kinase reactions were assayed with 1 mg/ml histone H1 (for CDK2 and CDK5) or (YSPTSPS)2KK peptide (for CDK7 and CDK9) in the presence of 15/0.15/1.5/1.5 […] ATP (for CDK2/CDK5/CDK7CDK9), […] [γ-^33P]ATP and of the test compound in a final volume of […]. The reaction buffer contained 60 mM HEPES-NaOH, pH 7.5, 3 mM MgCl2, 3 mM MnCl2, 3 mM Na-orthovanadate, 1.2 mM DTT, 2.5 mg/50 ml PEG20.000. The reactions were stopped by adding […] of 3% H3PO4. Aliquots were spotted onto P-81 phosphocellulose (Whatman, GE Healthcare Biosciences, Pittsburgh, USA), washed 3 times with 0.5% H3PO4 and finally air-dried. Kinase inhibition was quantified using a FLA-7000 digital image analyzer (Fujifilm, Tokyo, Japan).

[3] = system: p53-regulated transcription in Arn8 cells; test: p53-dependent transcriptional activity, β-galactosidase reporter; type: cell-based; conditions: 24 h incubation
Procedure: Stronger anticancer activity of the compounds is enhanced by its positive impact on stability and activity of the tumour suppressor p53. To measure p53-dependent transcriptional activity, β-galactosidase activity was quantified in the melanoma cell line Arn8, which had been established using stable transfection of cells with a p53-responsive reporter construct pRGCAfoslacZ (Frebung et al., Cancer Res., 52, 1992-6976). Briefly, after 24 h incubation with the inhibitors the Arn8 cells were permeabilized with 0.3% Triton X-100 for 15 min and then 4-methylumbelliferon-β-D-galactopyranoside was added as a substrate to the final concentration of 80 μM. After 1 h the fluorescence of product 4-methylumbelliferon was measured at 355/460 nm (ex/em) with a Fluoroskan Ascent microplate reader (Labsystems). Data in Tab. 8 present that series of 2-substituted-6-biarylmethylamino-9-cyclopentyl-9H-purine derivatives show a dose-dependent activatory effect on p53-regulated transcription, with the maximum impact observed between 100 and 500 nM concentrations for most of prepared compounds (Tab. 8).

Hep3B = test: MTT cytotoxicity assay (Example 30); type: cell-based, human; conditions: Homo sapiens, Hep3B, 72 h; MTT, three days after drug addition; read-out: Inhibitory concentration IC50, Hep3B
Procedure: Cytotoxicity of the compounds is the major property determining their anticancer effect in vivo. One of the parameters used, as the basis for cytotoxicity assays, is the metabolic activity of viable cells.
We have been using the following cell lines: HUH-7 and PLC/PRF/5 cell lines were maintained in DMEM supplemented with 10% fetal bovine serum, penicillin (100 U/ml) and streptomycin (100 μg/ml). […] HepG2 cell line was maintained in EMEM supplemented with 10% fetal bovine serum, sodium pyruvate (0.11 g/1), penicillin (100 U/ml) and streptomycin (100 μg/ml). All cell lines were cultivated at 37° C. in 5% CO2. For cytotoxicity assays, 3000 cells (10000 cells in case of HepG2 cell line) were seeded into each well of 96 well plate and the next day tested compounds were added at various concentrations in triplicates. Three days after drug addition MTT stock solution (5 mg/ml) was added into each well and incubated for 4 h. After this incubation period, produced formazan was dissolved by DMSO and final absorbance was measured at 570 nm with Synergy H4 Hybrid Multi-Mode Microplate Reader.

[4] = read-out: Kinase inhibition IC50, CDK1

SMILES | Relative caspase-3/7 activity in Hep3B cell line ([1]; 200 nM) | Relative caspase-3/7 activity in Hep3B cell line ([1]; 400 nM) | Relative caspase-3/7 activity in Hep3B cell line ([1]; 800 nM) | Relative caspase-3/7 activity in Hep3B cell line ([1]; 1600 nM) | Relative caspase-3/7 activity in PLC/PRF/5 cell line ([2]; compound concentration 40 nM) | Relative caspase-3/7 activity in PLC/PRF/5 cell line ([2]; compound concentration 80 nM) | Relative caspase-3/7 activity in PLC/PRF/5 cell line ([2]; compound concentration 160 nM) | Relative caspase-3/7 activity in PLC/PRF/5 cell line ([2]; compound concentration 320 nM) | Relative caspase-3/7 activity in PLC/PRF/5 cell line ([2]; compound concentration 640 nM) | Relative caspase-3/7 activity in PLC/PRF/5 cell line ([2]; compound concentration 1280 nM) | pIC50 (CDK1/cyclin B; [4]) | melting point [°C] | Concentration of maximum activation [3] [nM] | pIC50 (Hep3B) | Relative caspase-3/7 activity in Hep3B cell line ([1]; 100 nM) | pIC50 (CDK1/cyclin B; Table 12, read-out: IC50, CDK1/cyklin B)
COc1ccccc1-c1ccc(CNc2nc(NC3CCC(N)CC3)nc3c2ncn3C2CCCC2)cn1 (centres unmarked) [BP18, N^2-(4-amino-cyclohexyl)-9-cyclopentyl-N^6-[6-(2-methoxy-phenyl)-pyridin-3-ylmethyl]-9H-purine-2,6-diamine] | 0.89 | 3.19 | 6.05 | 8.59 | 0.97 | 2.40 | >5.00 | >5.00 | >5.00 | >5.00 | 6.93 | 184 to 186 | 510 | 6.63 |  | 
NC1CCC(Nc2nc(NCc3ccc(-n4cccn4)cc3)c3ncn(C4CCCC4)c3n2)CC1 (centres unmarked) [BP24, N^2-(4-amino-cyclohexyl)-9-cyclopentyl-N^6-(4-pyrazol-1-yl-benzyl)-9H-purine-2,6-diamine] | 6.18 | 6.81 | 9.80 | 9.65 | 2.01 | 2.59 | >5.00 | >5.00 | >5.00 | >5.00 | 7.24 | 186 to 187 | 260 | 6.94 | 1.98 | 
NC1CCC(Nc2nc(NCc3ccc(-c4ccco4)nc3)c3ncn(C4CCCC4)c3n2)CC1 (centres unmarked) [BP14, N^2-(4-amino-cyclohexyl)-9-cyclopentyl-N^6-(6-furan-2-yl-pyridin-3-ylmethyl)-9H-purine-2,6-diamine] | 3.60 | 6.55 | 9.00 | 9.50 | 1.99 | 2.86 | >5.00 | >5.00 | >5.00 | >5.00 | 7.30 |  | 137 | 7.24 | 0.99 | 7.30
NC1CCC(Nc2nc(NCc3ccc(-c4cccc(F)c4)nc3)c3ncn(C4CCCC4)c3n2)CC1 (centres unmarked) [BP19, N^2-(4-amino-cyclohexyl)-9-cyclopentyl-N^6-[6-(3-fluoro-phenyl)-pyridin-3-ylmethyl]-9H-purine-2,6-diamine] | 4.82 | 6.60 | 9.80 | 9.45 | 1.78 | 2.39 | >5.00 | >5.00 | >5.00 | >5.00 | 7.11 | 121 to 122 | 167 | 7.07 | 0.90 | 
NC1CCC(Nc2nc(NCc3ccc(-c4cccs4)nc3)c3ncn(C4CCCC4)c3n2)CC1 (centres unmarked) [BP30, N^2-(4-amino-cyclohexyl)-9-cyclopentyl-N^6-(6-thiophen-2-yl-pyridin-3-ylmethyl)-9H-purine-2,6-diamine] | 5.32 | 8.08 | 9.00 | 9.43 | 2.46 | 3.93 | >5.00 | >5.00 | >5.00 | >5.00 | 7.31 | 151 to 153 | 120 | 7.11 | 2.99 | 
